Source: US8835484B2, “Naphthocyanines for use as contrast agents” (Alamedics GmbH & Co. KG, priority 2010, dated 2014)
Counter-ions that a name gives are not always drawn.

Key:
[1] = Fluorescence quantum yield; format: physicochemical; conditions: CHCl3; Reference: S-13 with Φ=1.00
Excerpt: IR spectra: Perkin Elmer Spectrum BX II, using a diamond anvil cell; UV/Vis spectra: Varian Cary 5000 and Bruins Omega 20; fluorescence spectra: Varian Eclispe; NMR spectroscopy: Varian Vnmrs 600 (600 MHz, 400 MHz, 200 MHz); mass spectrometry: Thermo Finnigan LQT FT.

[2] = Solid cyanine dye stability comparison; format: physicochemical; conditions: storage
Excerpt: Decomposition of the solid dye results in a red coloration of the solid and the solution. Carboxylic acid esters, especially methyl ester, are particularly sensitive in addition to the bromides.

[3] = tested on: lens capsule; assay: Dye tests on porcine eyes (lens capsule staining); parameters: key: +++: visually assessed very strong coloration; ++: good coloration; +: satisfactory coloration; −: weak or absent coloration; conditions: incubated, rinsed after one minute
Procedure: For the dye test, in each case 5 mg dye was dissolved in 500 μL ethanol and diluted to 2 mL with BSS Plus solution as the stock solution, and then correspondingly further diluted. As an alternative, one can prepare stock solutions of the dye by dissolving, for example, 5 mg dye in 1 mL distilled water, adding 7 mL BSS solution and then combining with 1 mL NaCl solution having an osmolality of 620 (approximately 2%) in order to restore the original osmolality of the BSS solution (308). This stock solution can be correspondingly further diluted with BSS solution as required. Enucleated porcine eyes were used having a post mortem time period of a few hours. To dye the lens capsule, the cornea was first removed. Thereafter, the iris was resected and the capsular support was severed. The lens with intact lens capsule was removed and placed in a bowl filled with BSS. The lenses were thereafter incubated with the dyes according to the invention at various concentrations and then rinsed after one minute. The dye pattern was photographically documented, whereby the coloration was assessed without additional illumination, and fluorescence was assessed with illumination (Xenon lamp, halogen lamp with typical endoillumination source and fiber optics). The lens capsule is a very good model for dyeing due to the fact that it is a basal membrane, as is the ILM of the retina. Both structures are important target structures in eye surgery.

## 3,3′-Di-(5-bromopentyl)-1,1,1′,1′-tetramethyl-1H-dibenzo[e]indocarbocyanine bromide [Dye 3y]
[1]
  Fluorescence quantum yield: 0.15
[2]
  Stability: No decomposition after 4 months

## 3,3′-Di-(5-brompentyl)-1,1,1′,1′-tetramethyl-1H-disulfobenzo[e]indocarbocyanine bromide [Dye 6h]
[1]
  Fluorescence quantum yield: 0.19
[3]; dye concentration 0.5%
  coloration of lens capsule: decomposed
[3]; dye concentration 1.0
  coloration of lens capsule: decomposed
[2]
  Stability: Decomposition after a few days

## 3,3′-Di-(10-bromodecyl)-1,1,1′,1′-tetramethyl-1H-disulfobenzo[e]indocarbocyanine bromide [Dye 6i]
[1]
  Fluorescence quantum yield: 0.13
[3]; dye concentration 0.5%
  coloration of lens capsule: decomposed
[3]; dye concentration 1.0
  coloration of lens capsule: decomposed
[2]
  Stability: Decomposition after 2 days

## CC1(C)C(/C=C/C=C2\N(CCCCS(=O)(=O)O)c3ccc4ccccc4c3C2(C)C)=[N+](CCCCS(=O)(=O)[O-])c2ccc3ccccc3c21 (as salt: bromide) [Dye 3t, 3,3′-Di-(4-sulfobutyl)-1,1,1′,1′-tetramethyl-1H-dibenzo[e]indocarbocyanine bromide]
other
  melting point: > 250 °C

## CC1(C)C(/C=C/C=C2\N(CCCCS(=O)(=O)[O-])c3ccc4c(S(=O)(=O)O)cccc4c3C2(C)C)=[N+](CCCCS(=O)(=O)O)c2ccc3c(S(=O)(=O)O)cccc3c21 (as salt: bromide) [Dye 6a, 3,3′-Di-(4-sulfobutyl)-1,1,1′,1′-tetramethyl-1H-disulfobenzo[e]indocarbocyanine bromide]
other
  melting point: > 150 °C

## CC1(C)C(/C=C/C=C2\N(CCC(=O)O)c3ccc4ccccc4c3C2(C)C)=[N+](CCC(=O)O)c2ccc3ccccc3c21.[Br-] (hydrate or solvate) [Dye 3a, 3,3′-Di-(2-carboxyethyl)-1,1,1′,1′-tetramethyl-1H-dibenzo[e]indocarbocyanine bromide]
other
  melting point: 199 °C

## CC1(C)C(/C=C/C=C2\N(CCCCS(=O)(=O)O)c3ccc4ccccc4c3C2(C)C)=[N+](CCCCS(=O)(=O)[O-])c2ccc3ccccc3c21 [Dye 3t, 3,3′-Di-(4-sulfobutyl)-1,1,1′,1′-tetramethyl-1H-dibenzo[e]indocarbocyanine bromide]
[1]
  Fluorescence quantum yield: 0.32
[3]; dye concentration 0.0025%
  coloration of lens capsule: −
[3]; dye concentration 0.025%
  coloration of lens capsule: +
[3]; dye concentration 0.25%
  coloration of lens capsule: ++
[3]; dye concentration 0.5%
  coloration of lens capsule: +++
[2]
  Stability: No decomposition after 3 years

## CC1(C)C(=CC=CC2=[N+](CCCCCS(=O)(=O)O)c3ccc4ccccc4c3C2(C)C)N(CCCCCS(=O)(=O)O)c2ccc3ccccc3c21.[Br-] [Dye 3u, 3,3′-Di-(5-sulfopentyl)-1,1,1′,1′-tetramethyl-1H-dibenzo[e]indocarbocyanine bromide]
[1]
  Fluorescence quantum yield: 0.13
[3]; dye concentration 0.5%
  coloration of lens capsule: −
[3]; dye concentration 1.0
  coloration of lens capsule: +
[2]
  Stability: No decomposition after 4 months

## CC1(C)C(=CC=CC2=[N+](CCCCCCCCCCS(=O)(=O)O)c3ccc4ccccc4c3C2(C)C)N(CCCCCCCCCCS(=O)(=O)O)c2ccc3ccccc3c21.[Br-] [Dye 3v, 3,3′-Di-(10-sulfodecyl)-1,1,1′,1′-tetramethyl-1H-dibenzo[e]indocarbocyanine bromide]
[1]
  Fluorescence quantum yield: 0.14
[3]; dye concentration 0.5%
  coloration of lens capsule: −
[3]; dye concentration 1.0
  coloration of lens capsule: −
[2]
  Stability: No decomposition after 4 months

## CC1(C)C(/C=C/C=C2\N(CCCCS(=O)(=O)[O-])c3ccc4c(S(=O)(=O)O)cccc4c3C2(C)C)=[N+](CCCCS(=O)(=O)O)c2ccc3c(S(=O)(=O)O)cccc3c21 [Dye 6a, 3,3′-Di-(4-sulfobutyl)-1,1,1′,1′-tetramethyl-1H-disulfobenzo[e]indocarbocyanine bromide]
[1]
  Fluorescence quantum yield: 0.33
[3]; dye concentration 0.5%
  coloration of lens capsule: +++
[3]; dye concentration 1.0
  coloration of lens capsule: +++
[2]
  Stability: No decomposition after 4 months

## CC1(C)C(/C=C/C=C2\N(CCC(=O)O)c3ccc4c(S(=O)(=O)O)cccc4c3C2(C)C)=[N+](CCC(=O)O)c2ccc3c(S(=O)(=O)O)cccc3c21.[Br-] [Dye 6b, 3,3′-Di-(2-carboxyethyl)-1,1,1′,1′-tetramethyl-1H-disulfobenzo[e]indocarbocyanine bromide]
[1]
  Fluorescence quantum yield: 0.21
[3]; dye concentration 0.5%
  coloration of lens capsule: +++
[3]; dye concentration 1.0
  coloration of lens capsule: +++
other
  melting point: > 180 °C (dec.)
[2]
  Stability: Decomposition after a few days

## CC1(C)C(/C=C/C=C2\N(CCCCCCCCCCC(=O)O)c3ccc4c(S(=O)(=O)O)cccc4c3C2(C)C)=[N+](CCCCCCCCCCC(=O)O)c2ccc3c(S(=O)(=O)O)cccc3c21.[Br-] [Dye 6c, 3,3′-Di-(10-carboxydecyl)-1,1,1′,1′-tetramethyl-1H-disulfobenzo[e]indocarbocyanine bromide]
[1]
  Fluorescence quantum yield: 0.31
[3]; dye concentration 0.5%
  coloration of lens capsule: ++
[3]; dye concentration 1.0
  coloration of lens capsule: ++
other
  melting point: > 150 °C (dec.)
[2]
  Stability: No decomposition after 3 months

## COC(=O)CCCCCCCCCCN1/C(=C\C=C\C2=[N+](CCCCCCCCCCC(=O)OC)c3ccc4c(S(=O)(=O)O)cccc4c3C2(C)C)C(C)(C)c2c1ccc1c(S(=O)(=O)O)cccc21.[Br-] [Dye 6d, 3,3′-Di-(10-methoxycarbonyldecyl)-1,1,1′,1′-tetramethyl-1H-disulfobenzo[e]indocarbocyanine bromide]
[1]
  Fluorescence quantum yield: 0.25
[3]; dye concentration 0.5%
  coloration of lens capsule: decomposed
[3]; dye concentration 1.0
  coloration of lens capsule: decomposed
other
  melting point: > 150 °C (dec.)
[2]
  Stability: Decomposition after 1 month

## CCOC(=O)CCN1/C(=C\C=C\C2=[N+](CCC(=O)OCC)c3ccc4c(S(=O)(=O)O)cccc4c3C2(C)C)C(C)(C)c2c1ccc1c(S(=O)(=O)O)cccc21.[Br-] [Dye 6e, 3,3′-Di-(2-ethoxycarbonylethyl)-1,1,1′,1′-tetramethyl-1H-disulfobenzo[e]indocarbocyanine bromide]
[1]
  Fluorescence quantum yield: 0.18
[3]; dye concentration 0.5%
  coloration of lens capsule: decomposed
[3]; dye concentration 1.0
  coloration of lens capsule: decomposed
other
  melting point: > 150 °C (dec.)
[2]
  Stability: Decomposition after 2 months

## CCOC(=O)CCCCCN1/C(=C\C=C\C2=[N+](CCCCCC(=O)OCC)c3ccc4c(S(=O)(=O)O)cccc4c3C2(C)C)C(C)(C)c2c1ccc1c(S(=O)(=O)O)cccc21.[Br-] [Dye 6g, 3,3′-Di-(5-ethoxycarbonylpentyl)-1,1,1′,1′-tetramethyl-1H-disulfobenzo[e]indocarbocyanine bromide]
[1]
  Fluorescence quantum yield: 0.22
[3]; dye concentration 0.5%
  coloration of lens capsule: ++
[3]; dye concentration 1.0
  coloration of lens capsule: ++
other
  melting point: > 150 °C (dec.)
[2]
  Stability: No decomposition after 3 months

## CCCCCN1/C(=C\C=C\C2=[N+](CCCCC)c3ccc4ccccc4c3C2(C)C)C(C)(C)c2c1ccc1ccccc21.[Br-] [Dye 6j, 3,3′-Di-(pentyl)-1,1,1′,1′-tetramethyl-1H-dibenzo[e]indocarbocyanine bromide]
[1]
  Fluorescence quantum yield: 0.20
other
  melting point: > 150 °C (dec.)
